Assay results as given in paper PMC10988555, “Exploiting Co(III)-Cyclopentadienyl Complexes To Develop Anticancer Agents” (Inorganic Chemistry, 2024).

Tests used:
Type in all cases: cell-based, human
A2780 cell line [1] = assay: Autophagy induction, flow cytometry; conditions: for increase of autophagy compared to the control: A2780, IC50, 48 h, vs DMSO 0.1%; for levels of autophagy: A2780, 48 h, complexes at IC50, DOX 0.4 μM, cisplatin 5 μM, rapamycin 500 nM for 15 h
Protocol: The autophagy induced by complexes 2–4 was evaluated using the Autophagy Assay Kit (ab139484, Abcam, Cambridge, United Kingdom) according to the manufacturer’s instructions. For this, the A2780 cell line was seeded at a density of 2 × 10^5 cells/well in 6-well plates and incubated for 24 h at the conditions mentioned before. […] The positive control Rapamycin at 500 nM was incubated for only 15 h. After 48 h incubation, the cells were washed with PBS 1×, detached with TE, and treated with the Autophagy detection kit (Abcam, Cambridge, UK) according to the manufacturer’s instructions. The evaluation of autophagy induction was done through the Attune acoustic focusing flow cytometer (ThermoFisher Scientific) and respective software.

A2780 cells = assay: Cell fractioning and ICP-AES (cytosolic, mitochondrial, nuclear fractions); conditions: A2780, 12 h, 10× IC50, 37 °C
Protocol: Internalization of the complexes in different cellular factions (cytosolic, mitochondrial, or nuclear) of A2780 cells was evaluated by using a cell fractionation kit (Abcam). Cells were seeded in a 24-well plate at a density of 2 × 10^5 cells/mL and incubated for 24 h at 37 °C with 5% (v/v) CO2. […] Cells were then incubated for 12 h at the same conditions as before. The culture media was recovered to a new tube (supernatant fraction) and cells were detached from the T-flask with 250 μL of TE (Gibco by life technologies). Then, we followed the instructions provided by the manufacturer of the cell fractionation kit (Abcam). At the end of the procedure, fresh aqua regia was added to the supernatant tube and to the cellular fractions and incubated overnight at room temperature (RT) in the hood fume. Samples were delivered to Laboratório de Análises/LAQV and the levels of cobalt were evaluated by ICP-AES.

ROS in A2780 cell line = assay: Production of reactive oxygen species (H2DCF-DA flow cytometry); conditions: A2780, IC50, 48 h, vs DMSO
Protocol: The production of ROS was evaluated in the A2780 cell line, seeded in 6-well plates at a density of 2 × 10^5 cells/well, and incubated for 24 h at the same conditions as described above. […] Later, cells were washed with PBS 1×, detached from the wells with TE, and incubated with […] of 2′,7′-dichlorodihydrofluorescein diacetate (H2DCF-DA) (ThermoFisher Scientific, Waltham, MA, USA) in PBS 1× for 20 min at 37 °C. The data were obtained through an Attune acoustic focusing flow cytometer (ThermoFisher Scientific) and respective software.

DNA of A2780 cells = assay: Single-cell gel electrophoresis (comet assay); conditions: for fold increase in DNA in the tail compared to DMSO control: A2780, 10× IC50, 12 h; for % of DNA in the tail: A2780, complexes 10× IC50 for 12 h, H2O2 0.05% for 30 min at RT
Protocol: A2780 cells were seeded in 6-well plates with a density of 1 × 10^6 cells/well and incubated for 24 h in an incubator with a humidified atmosphere at 5% (v/v) CO2 and 37 °C. […] The complexes and DMSO were incubated at 37 °C for 12 h and H2O2 for 30 min at RT. Cells were harvested with a cell scraper and solutions with 1 × 10^5 cells/mL in PBS were prepared. It was withdrawn 10 μL from the solutions and added to 90 μL of 1.5% (w/v) low melting point agarose in 1× PBS and dropped on the slides prepared previously with a coating of 1.5% (w/v) agarose (normal melting point agarose) in 1× TAE buffer. After drying at 4 °C for 15 min, the slides were dipped into lysis solution (450 mM NaCl, 3.72% EDTA, 5 mM Tris; to which 10% (v/v) DMSO and 1% (v/v) Triton-X were added just before use) for 1 h at 4 °C, followed by their being dipped for 40 min into cold electrophoresis solution (1 mM EDTA, 300 mM NaOH, pH 13). Electrophoresis was performed at 4 °C for 30 min at 25 V using a Sub-Cell model 96 apparatus (Bio-Rad). Afterward, slides were placed in 0.1 M Tris–HCl buffer (pH 7.5) at 4 °C for 15 min for neutralization, followed by 15 min in methanol at 4 °C and drying at 37 °C. For visualization of comets, slides were hydrated with distilled water at 4 °C for 30 min, stained with 20 μL of GelRed working solution (3×), and covered with new coverslips. The slides were observed under a Ti–U Eclipse inverted microscope (Nikon Instruments, Japan) and analyzed by CometScore version 2.1 (TriTek). About 100 cells per sample were analyzed. The percentage of DNA in the tail was used as a measure of the total DNA strand breakage.

A2780 cell line [2] = assay: Apoptosis induction, Annexin V/PI flow cytometry; conditions: A2780, IC50 of each complex, 48 h
Protocol: The induction of apoptosis was evaluated by flow cytometry in the A2780 cell line, through the Alexa Fluor Annexin V/Dead Cell Apoptosis Kit (ThermoFisher Scientific). A2780 cells were seeded at a density of 2 × 10^5 cells/well in 6-well plates and incubated for 24 h. After that time, the medium was replaced by medium mixed with complexes 2–4 at their IC50. […] After a period of 48 h of incubation, cells were washed with PBS 1× and TE was used to detach the cells. The cells were resuspended in annexin-binding buffer 1× and incubated for 15 min at RT with Alexa Fluor 488 annexin V and Propidium Iodide. All samples were analyzed by an Attune Acoustic Focusing Flow Cytometer (ThermoFisher Scientific) and respective software.

Row | SMILES | increase of autophagy compared to the control (A2780 cell line [1]) [×] | Percentage of internalization in cytosol (A2780 cells) | Percentage of internalization in mitochondria (A2780 cells) | Percentage of internalization in nucleus (A2780 cells) | ROS production relative to control (ROS in A2780 cell line) | fold increase in DNA in the tail compared to DMSO control (DNA of A2780 cells) [fold] | % of DNA in the tail (DNA of A2780 cells) [%] | percentage of cells in initial apoptosis (A2780 cell line [2]) [%] | percentage of cells in late apoptosis (A2780 cell line [2]) [%] | percentage of cells in necrosis (A2780 cell line [2]) [%] | total apoptosis levels (A2780 cell line [2]) [%] | levels of autophagy (A2780 cell line [1]) [%]
1 | O=S(=O)([O-])C(F)(F)F.O=S(=O)([O-])C(F)(F)F.[Co+3].c1cc[cH-]c1.c1ccc(P(c2ccccc2)c2ccccc2)cc1.c1cnc2c(c1)ccc1cccnc12 [Complex 3, [Co(η^5-C5H5)(PPh3)(phen)][(CF3SO3)2]] | 1.5 | 30.6% ± 2.7 | 26.0% ± 11.4 | 20.3% ± 5.8 | 1.7 × | 3.2 | 42.4 | 5.0 | 0.9 | 6.1 | 5.9 | 
2 | Cc1ccnc(-c2cc(C)ccn2)c1.O=S(=O)([O-])C(F)(F)F.O=S(=O)([O-])C(F)(F)F.[Co+3].c1cc[cH-]c1.c1ccc(P(c2ccccc2)c2ccccc2)cc1 [Complex 2, [Co(η^5-C5H5)(PPh3)(Me2bipy)][(CF3SO3)2]] | 1.9 | 36.9% ± 10.4 | 17.6% ± 6.5 | 38.1% ± 7.4 | only a slight increase in the % of ROS | 3.1 | 39.7 | 5.0 | 0.8 | 7.8 | 5.8 | 81.5
3 | Nc1cc2cccnc2c2ncccc12.O=S(=O)([O-])C(F)(F)F.O=S(=O)([O-])C(F)(F)F.[Co+3].c1cc[cH-]c1.c1ccc(P(c2ccccc2)c2ccccc2)cc1 [Complex 4, [CoCp(PPh3)(NH2phen)][(CF3SO3)2]] | 2.2 | 66.4% ± 14.7 | 4.5% ± 2.1 | 18.4% ± 4.9 | 1.9 × | 4.4 | 56.4 | 5.6 | 0.9 | 5.9 | 6.5 | 95.5
